{"source": "patent US10426777B2", "about": "“Methods used to treat cancer” (THE TRANSLATIONAL GENOMICS RESEARCH INSTITUTE, priority 2009, dated 2019)", "key": {"TROY [1]": {"tested_on": "TROY", "assay": "TROY expression in GBM cells by immunoblotting (Western blot)", "format": "cell-based, Human", "description": "(§1) FIGS. 24A-24D illustrate that PPF treatment decreases TROY expression in GBM cells. FIG. 24A—a Western blot analysis of TROY expression in T98G cells. Cells were treated with PPF at indicated concentrations for 6 hrs, lysed, and cell lysates immunoblotted with anti-TROY antibody. Immunoblotting of α-Tubulin in cell lysates is included as a loading control. FIG. 24B—Western blot analysis of TROY expression in T98G, GBM43, and GBM10 cells. Cells were treated with PPF at indicated concentrations for 24 hrs, lysed, and cell lysates immunoblotted with anti-TROY and α-Tubulin antibodies. FIG. 24C—Western Blot analysis of TROY expression in GBM10 and GBM43 primary glioma cells. Cells were treated with 5 μM PPF, lysed at the indicated time-points, and the lysates immunoblotted with an anti-TROY antibody. Immunoblotting of β-Actin in cell lysates is included as a loading control. FIG. 24D—Western Blot analysis of T98G, GBM10 and GBM43 glioma cells treated with 5 μM PPF for 24 hours. Lysates were immunoblotted with anti-TROY, anti-TNFR1, anti-EGFR, and β-Actin antibodies.\nCell Culture Conditions: Human glioma cell line T98G (ATCC) was maintained in DMEM with high glucose (Invitrogen) supplemented with 10% heat-inactivated fetal bovine serum (FBS) (Invitrogen) in a 37° C., 5% CO2 atmosphere at constant humidity. The primary glioma patient derived xenograft (PDX) lines GBM10 and GBM43 were derived from patient surgical samples and maintained as flank xenografts in immunodeficient mice. GBM10 and GBM43 flank tumor were resected, brought to single cell suspension via mechanical dissociation, and maintained in DMEM+10% FBS for in vitro experiments. In the experiments with FBS stimulation, the cells were serum starved (DMEM+0.1% Bovine Serum Albumin (BSA)) for 16 hours before stimulation with 10% FBS in DMEM.\nReferring now to FIGS. 24A, 24B, 24C, and 24D: The inventors investigated if PPF could be utilized pharmacologically to decrease TROY expression in GBM cells. The long-term established cell line T98G was first utilized to test the efficacy of PPF. Cells were treated with increasing concentration of PPF, 1 to 20 μM, lysed, and TROY expression assessed by immunoblotting. Briefly, monolayers of cells were washed in phosphate-buffered saline (PBS) containing 1 mM phenylmethylsulfonylfluoride and 1 mM sodium orthovanadate and then lysed in 2×SDS sample buffer containing protease and phosphatase inhibitors. Protein concentrations were determined using the BCA Assay (Pierce). Thirty micrograms of total protein was loaded per lane and separated by SDS-PAGE. […] Protein bands were detected using SuperSignal Chemiluminescent Substrate (Pierce) with a UVP BioSpectrum 500 Imaging System."}, "TNFR1": {"tested_on": "TNFR1", "assay": "TNFR1 expression in glioma cells by Western blot", "format": "cell-based, Human", "settings": "T98G, GBM10 and GBM43 cells, 5 μM PPF, 24 hours", "description": "as §1, with “FIG. 24D—Western Blot analysis of T98G, GBM10 and GBM43 glioma cells treated with 5 μM PPF for 24 hours. Lysates were immunoblotted with anti-TROY, anti-TNFR1, anti-EGFR, and β-Actin antibodies.” left out\n(§2) Referring now to FIGS. 24A, 24B, 24C, and 24D: The inventors investigated if PPF could be utilized pharmacologically to decrease TROY expression in GBM cells. […] Cells were treated with increasing concentration of PPF, 1 to 20 μM, lysed, and TROY expression assessed by immunoblotting. […] Protein concentrations were determined using the BCA Assay (Pierce). […] Protein bands were detected using SuperSignal Chemiluminescent Substrate (Pierce) with a UVP BioSpectrum 500 Imaging System."}, "EGFR": {"tested_on": "EGFR", "assay": "EGFR expression in glioma cells by Western blot", "format": "cell-based, Human", "settings": "T98G, GBM10 and GBM43 cells, 5 μM PPF, 24 hours", "description": "as §1, with “FIG. 24D—Western Blot analysis of T98G, GBM10 and GBM43 glioma cells treated with 5 μM PPF for 24 hours. Lysates were immunoblotted with anti-TROY, anti-TNFR1, anti-EGFR, and β-Actin antibodies.” left out\nas §2"}, "[2]": {"tested_on": "T98G, GBM10, and GBM43 cells", "assay": "Glioma cell proliferation by automated cell counting", "format": "cell-based, Human", "settings": "doses up to 500 μM, 0-144 hours", "description": "(§3) FIG. 25A—T98G, GBM43, and GBM10 cells were incubated with increasing concentrations of PPF (0, 5, 50, and 500 μM). After 0, 48, 96 and 144 hours of treatment, cell were trypsinized and counted using an automated cell counter. FIG. 24B—GBM43, GBM10, and T98G glioma cells were treated with increasing doses of PPF (0.5, 1, 5, 10, and 20 μM) in triplicate. The Cell Titer Glo (Promega) reagent was used to measure survival. Raw values were normalized on a plate-by-plate basis such that 100% cell viability was equivalent to the mean of vehicle wells and 0% cell viability was equivalent to the mean of the MG132 positive control. The normalized data was used to assess viability of glioma cells after PPF treatment.\n(§4) Referring now to FIGS. 25A and 25B: To determine if PPF influences glioma cell proliferation, the inventors treated T98G, GBM10, and GBM43 cells with increasing concentrations of PPF and evaluated cell proliferation over the course of 144 hours. Briefly, 1.25×10^5 cells were seeded (n=3) in 12-well plates in 1 mL of DMEM supplemented with 10% FBS and allowed to attach at 37° for 16 hrs. […] After 0, 48, 96 and 144 hours of treatment, the cells were trypsinized and counted using the automated cell counter. […] Subsequently, 100 μL of CellTiterGlo® reagent was added to each well and luminescence was measured using Envision Reader. […]"}, "[3]": {"tested_on": "T98G, GBM10, and GBM43 cells", "assay": "CellTiterGlo glioma cell cytotoxicity / viability assay", "format": "cell-based, Human", "settings": "all three GBM cell lines; PPF 0.5 to 20 μM; 72 hours", "description": "as §3, §4"}, "T98G and GBM43 cells": {"tested_on": "T98G and GBM43 cells", "assay": "Clonogenic survival assay with TMZ or radiation", "format": "cell-based, Human", "description": "(§5) FIGS. 26A-26C depict that PPF sensitizes GBM cells to TMZ and radiotherapy. FIG. 26A—A clonogenic assay was used to assess T98G and GBM43 cells survival after TMZ and radiation treatment. Cells were pre-treated with 5 μM PPF for 24 hours, and then either treated with 250 μM TMZ for 24 hours or exposed to 2 Gy radiation. Graph depicts the surviving fraction in the treated cells compared to vehicle (VC) treated or non-treated (NT) cells, **p<0.01. FIG. 26B—T98G glioma cells were treated with vehicle, PPF (5 μM), TMZ (250 μM), and PPF in combination with TMZ. TMZ-induced apoptosis was assayed by immunoblot analysis of cell lysates with an antibody to cleaved PARP. Immunoblotting for α-Tubulin was included as a loading control. FIG. 26C—T98G, GBM10, and GBM43 cells were treated with PPF (5 μM), lysed, and then immunoblotted to assess the activation of AKT and NF-κB. Immunoblotting for […] is included as a loading control.\n(§6) Referring now to FIGS. 26A, 26B, and 26C: Knockdown of TROY expression with shRNA decreases TMZ resistance in GBM cells in vitro (See Reference 42). […] Following combination therapy, cells were trypsinized, counted, and plated in a 6-well culture dish at densities of 100, 250, and 500 cells per well in triplicate. Cells were incubated for 12 days then fixed, stained with 0.5% crystal violet solution, and counted manually by blinded observers. […]"}, "cleaved PARP": {"tested_on": "cleaved PARP", "assay": "Apoptosis by immunoblot for cleaved PARP", "format": "cell-based, Human", "settings": "T98G cells; PPF 5 μM, TMZ 250 μM", "description": "as §5, §6"}, "AKT": {"tested_on": "AKT", "assay": "AKT activation (phosphorylation) by immunoblot", "format": "cell-based, Human", "settings": "T98G and GBM43 cells; PPF 5 μM", "description": "as §5, §6"}, "NF-κB": {"tested_on": "NF-κB", "assay": "NF-κB activation (phosphorylation) by immunoblot", "format": "cell-based, Human", "settings": "T98G and GBM43 cells; PPF 5 μM", "description": "as §5, §6"}, "[4]": {"tested_on": "T98G, GBM10, and GBM43 glioma cells", "assay": "Matrigel invasion assay", "format": "cell-based, Human", "settings": "5 μM PPF, 24 hours, 10% FBS", "description": "(§7) FIGS. 27A and 27B depict that PPF suppresses GBM cell invasion and Rac1 activation. FIG. 27A—T98G, GBM10, and GBM43 glioma cells were treated with 5 μM PPF and invasion was assayed over 24 hours utilizing a Matrigel invasion assay, *p<0.05. FIG. 27B—T98G glioma cells were serum starved, pre-incubated with 5 μM PPF or vehicle for 1 hour, and then stimulated with 10% FBS for 2-10 mins. Cell lysates were harvested and equal concentrations of protein were assessed for Rac1 activation.\n(§8) Referring now to FIGS. 27A and 27B: The inventors next examined whether PPF inhibited TROY dependent glioma cell invasion. […] Briefly, 5.0×10^5 glioma cells were seeded in 100-mm diameter culture dishes and incubated overnight at 37° C. Subsequently, cells were serum starved for 16 hours at 37° C. Cells were then harvested, re-suspended in growth factor reduced Matrigel (Becton Dickinson) (1.0×10^5 cells/50 uL), added in triplicates to collagen-coated transwell chambers, and allowed to invade through Matrigel in presence of 10% FBS and/or 5 μM PPF. After incubation for 24 hours at 37° C., non-invaded cells were scrapped off the upper side of the membrane and cells invaded to the other side of the membrane were fixed with 4% paraformaldehyde (PFA) (Affymetrix) and stained with DAPI (Invitrogen). Nuclei of invaded cells were counted in five high power fields (HPF) with a 20× objective."}, "Rac1": {"tested_on": "Rac1", "assay": "Rac1 activation assay after FBS stimulation", "format": "cell-based, Human", "settings": "T98G cells; 5 μM PPF 1 hour, then 10% FBS 2-10 mins", "description": "as §7, §8"}, "[5]": {"tested_on": "T98G, GBM10, and GBM43 cells", "assay": "Lamellipodia formation and membrane ruffling (F-actin staining)", "format": "cell-based, Human", "settings": "5 μM PPF 1 hour, then 10% FBS 5 min", "description": "FIGS. 28A and 28B depict that PPF suppresses GBM cell membrane ruffling. FIG. 28A—GBM43 cells were preincubated with 5 μM PPF or vehicle for 1 hour prior to 10% FBS stimulation for 5 min. After FBS stimulation, cells were fixed, permeabilized, and stained for F-actin. For each experimental condition, at least 12 images were taken randomly. Arrowhead indicates membrane ruffles. FIG. 28B—Graph depicts the average lamellipodia in T98G, GBM10, and GBM43 cells in the presence or absence of 10% FBS with or without 5 μM PPF as indicated. Lamellipodia were traced using Image J software.\nReferring now to FIGS. 28A and 28B: The inventors investigated lamellipodia formation and membrane ruffling. Briefly, glioma cells were plated onto 10-well glass slides pre-coated with 10 μg/ml laminin at the density of 3000 cells/well for 24 hours at 37° C. Subsequently, cells were serum starved for 16 hours. The cells were pre-incubated with 5 μM PPF or vehicle for 1 hour prior to 10% FBS stimulation for 5 min. After FBS stimulation, cells were fixed in 4% PFA, permeabilized with 0.1% Triton X-100, and incubated with Alexa Fluor® 555 Phalloidin (Invitrogen) to stain for F-actin. Slides were mounted with ProLong® reagent with DAPI and imaged using a Zeiss LSM 510 microscope. For each experimental condition, at least 12 images were randomly taken. Lamellipodia were traced using ImageJ software."}, "CNS-1 rat model": {"tested_on": "CNS-1 rat model", "settings": "systemic PPF treatment, via modulation of microglia; cited from earlier work"}, "microglia": {"tested_on": "microglia", "settings": "Reference 41; cited from earlier work"}, "TROY [6]": {"tested_on": "TROY", "settings": "Reference 41; cited from earlier work"}, "[7]": {"settings": "clinical trials, cited from earlier work"}}, "data": [{"compound": "CCCn1cnc2c1c(=O)n(CCCCC(C)=O)c(=O)n2C", "note": "[PPF, 3-methyl-1-(5-oxohexyl)-7-propyl-3,7-dihydro-1H-purine-2,6-dione]", "values": [{"measurement": "TROY expression over time", "setting": "TROY [1]; GBM10 and GBM43 cells, 5 μM PPF for varying lengths of time", "value": "decreased in a time-dependent manner"}, {"measurement": "TROY expression", "setting": "TROY [1]; T98G cells, 1 μM PPF, 6 hrs", "value": "significant suppression"}, {"measurement": "TROY expression", "setting": "TROY [1]; T98G cells, PPF 1 to 20 μM, 6 hrs", "value": "decreased in concentration dependent manner"}, {"measurement": "TROY expression", "setting": "TROY [1]; T98G, GBM10 and GBM43 cells, 5 μM PPF, 24 hrs", "value": "effective in lowering TROY expression"}, {"measurement": "TNFR1 expression", "setting": "TNFR1", "value": "did not affect"}, {"measurement": "EGFR expression", "setting": "EGFR", "value": "did not affect"}, {"measurement": "proliferation of glioma cells", "setting": "[2]", "value": "did not affect"}, {"measurement": "cell viability", "setting": "[3]", "value": "negligible loss of cell viability"}, {"measurement": "surviving fraction, PPF and 2Gy radiation compared to 2Gy radiation alone", "setting": "T98G and GBM43 cells; GBM cells, 5 μM PPF 24 hours then 2 Gy", "value": "significantly decreased"}, {"measurement": "surviving fraction, PPF in combination with TMZ compared to TMZ alone", "setting": "T98G and GBM43 cells; T98G and GBM43, 5 μM PPF 24 hours then 250 μM TMZ 24 hours", "value": "significantly decreased"}, {"measurement": "cleaved PARP, PPF and TMZ compared to TMZ alone", "setting": "cleaved PARP", "value": "increase"}, {"measurement": "AKT phosphorylation", "setting": "AKT", "value": "effectively decreased"}, {"measurement": "NF-κB phosphorylation", "setting": "NF-κB", "value": "effectively decreased"}, {"measurement": "glioma cell invasion", "setting": "[4]", "value": "significantly inhibited"}, {"measurement": "Rac1 activation", "setting": "Rac1", "value": "inhibited"}, {"measurement": "lamellipodia formation and membrane ruffling", "setting": "[5]", "value": "significantly decreased"}, {"measurement": "tumor growth", "setting": "CNS-1 rat model", "value": "decreased"}, {"measurement": "migration of microglia", "setting": "microglia", "value": "inhibit"}, {"measurement": "TROY expression in microglia", "setting": "TROY [6]", "value": "decreasing"}, {"measurement": "therapeutic efficacy", "setting": "[7]; Alzheimer's disease and vascular dementia", "value": "therapeutic efficacy"}, {"measurement": "side effect profile", "setting": "[7]; Reference 39", "value": "minimal side effect profile"}]}]}
